Measurements reported in ChEMBL document CHEMBL4373746, “Structural attributes influencing unbound tissue distribution” (Eur J Med Chem, 2020).

Key:
[1] = Fraction unbound in Wistar Han rat plasma at 2 uM incubated for 6 hrs by equilibrium dialysis method
[2] = Fraction unbound in Wistar Han rat white adipose tissue at 2 uM incubated for 6 hrs by equilibrium dialysis method
[3] = Fraction unbound in Wistar Han rat brain at 2 uM incubated for 6 hrs by equilibrium dialysis method
[4] = Fraction unbound in Wistar Han rat heart at 2 uM incubated for 6 hrs by equilibrium dialysis method
[5] = Fraction unbound in Wistar Han rat liver at 2 uM incubated for 6 hrs by equilibrium dialysis method
[6] = Fraction unbound in Wistar Han rat skeletal muscle at 2 uM incubated for 6 hrs by equilibrium dialysis method
[7] = Total plasma concentration in Wistar Han rat at 1 to 2 mg/kg, iv infused for 10 to 20 hrs by LC-MS/MS analysis; settings: in vivo
[8] = Drug concentration in total white adipose tissue in Wistar Han rat at 1 to 2 mg/kg, iv infused for 10 to 20 hrs by LC-MS/MS analysis; settings: in vivo
[9] = Drug concentration in total brain in Wistar Han rat at 1 to 2 mg/kg, iv infused for 10 to 20 hrs by LC-MS/MS analysis; settings: in vivo
[10] = Drug concentration in total heart in Wistar Han rat at 1 to 2 mg/kg, iv infused for 10 to 20 hrs by LC-MS/MS analysis; settings: in vivo
[11] = Drug concentration in total liver in Wistar Han rat at 1 to 2 mg/kg, iv infused for 10 to 20 hrs by LC-MS/MS analysis; settings: in vivo
[12] = Drug concentration in total skeletal muscle in Wistar Han rat at 1 to 2 mg/kg, iv infused for 10 to 20 hrs by LC-MS/MS analysis; settings: in vivo
[13] = Unbound tissue partition coefficient, ratio of drug level in heart to plasma in Wistar Han rat at 1 to 2 mg/kg, iv infused for 10 to 20 hrs by LC-MS/MS analysis
[14] = Unbound tissue partition coefficient, ratio of drug level in brain to plasma in Wistar Han rat at 1 to 2 mg/kg, iv infused for 10 to 20 hrs by LC-MS/MS analysis
[15] = Unbound tissue partition coefficient, ratio of drug level in adipose to plasma in Wistar Han rat at 1 to 2 mg/kg, iv infused for 10 to 20 hrs by LC-MS/MS analysis
[16] = Unbound tissue partition coefficient, ratio of drug level in liver to plasma in Wistar Han rat at 1 to 2 mg/kg, iv infused for 10 to 20 hrs by LC-MS/MS analysis
[17] = Unbound tissue partition coefficient, ratio of drug level in skeletal muscle to plasma in Wistar Han rat at 1 to 2 mg/kg, iv infused for 10 to 20 hrs by LC-MS/MS analysis
[18] = Apparent permeability of the compound across dog RRCK cells by MDCK-LE assay
[19] = Unbound tissue partition coefficient, ratio of drug level in brain to plasma in mouse administered as single dose; type: ADME; settings: read-out: K(p,uu,brain)

| Structure (SMILES) | fraction unbound at 6 h, 2 µM [1] | fraction unbound at 6 h, 2 µM [2] | fraction unbound at 6 h, 2 µM [3] | fraction unbound at 6 h, 2 µM [4] | fraction unbound at 6 h, 2 µM [5] | fraction unbound at 6 h, 2 µM [6] | Cp [7] | Ct [8] | Ct [9] | Ct [10] | Ct [11] | Ct [12] | Kp uu ([13]; heart/plasma) | Kp uu ([14]; brain/plasma) | Kp uu ([15]; adipose/plasma) | Kp uu ([16]; liver/plasma) | Kp uu ([17]; skeletal muscle/plasma) | Papp [18] | Kp uu [19] | also measured |
| --- | --- | --- | --- | --- | --- | --- | --- | --- | --- | --- | --- | --- | --- | --- | --- | --- | --- | --- | --- | --- |
| C[C@H](c1nc2cnc(N3CCC[C@@H](C(=O)N4CCCC4)C3)nc2[nH]1)n1cc(Cl)cn1 | 0.186 | 0.256 | 0.155 | 0.121 | 0.111 | 0.0901 | 50 ng/mL | 39 ng/mL | 1.8 ng/mL | 120 ng/mL | 240 ng/mL | 56 ng/mL | 1.5 | 0.013 | 1.1 | 2.8 | 0.54 | 24 ×10⁻⁶ cm/s | – | – |
| CC(C)C[C@H](Nc1ccc(C(=O)NCCC(=O)O)cn1)c1ccc(-c2ccc(C(F)(F)F)cn2)cc1 | 0.0141 | 0.119 | 0.00795 | 0.00934 | 0.00684 | 0.011 | 45 ng/mL | 0.77 ng/mL | 0.95 ng/mL | 45 ng/mL | 1000 ng/mL | 0.8 ng/mL | 0.57 | 0.0042 | 0.024 | 12 | 0.02 | 0.1 ×10⁻⁶ cm/s | – | – |
| CO[C@@H]1C[C@H](C(=O)Nc2ccc(-n3cc(Cl)ccc3=O)cc2F)N(C(=O)Nc2ccc(Cl)cc2)C1 | 0.0543 | 0.177 | 0.0391 | 0.0772 | 0.0949 | 0.0842 | 120 ng/mL | 300 ng/mL | 10 ng/mL | 960 ng/mL | 600 ng/mL | 180 ng/mL | 11 | 0.064 | 7.9 | 8.6 | 2.4 | 21 ×10⁻⁶ cm/s | – | – |
| Cc1ccc(NC(=O)N2CCN(Cc3sc4ccccc4c3C)CC2)nc1 | 0.0044 | 0.00709 | 0.0099 | 0.00576 | 0.0191 | 0.0067 | 92 ng/mL | 240 ng/mL | 91 ng/mL | 130 ng/mL | 630 ng/mL | 37 ng/mL | 1.9 | 2.5 | 4.8 | 31 | 0.65 | 25 ×10⁻⁶ cm/s | – | – |
| CS(=O)(=O)c1cccc(C(=O)O)c1 | 0.373 | 0.516 | 1 | 0.422 | 0.628 | 0.865 | 130 ng/mL | 0.77 ng/mL | 1 ng/mL | 40 ng/mL | 190 ng/mL | 14 ng/mL | 0.39 | 0.02 | 0.024 | 2.4 | 0.27 | 12 ×10⁻⁶ cm/s | – | – |
| O=C(O)c1nc2cc(Cl)c(Cl)cc2nc1O [6,7-DICHLORO-3-HYDROXY-2-QUINOXALINECARBOXYLIC ACID] | 0.0414 | 0.476 | 1 | 0.284 | 0.24 | 0.435 | 56 ng/mL | 0.77 ng/mL | 0.38 ng/mL | 12 ng/mL | 17 ng/mL | 5.3 ng/mL | 1.8 | 0.0018 | 0.024 | 2 | 1.1 | 1.3 ×10⁻⁶ cm/s | – | – |
| CN1CC[C@H](c2c(O)cc(O)c3c(=O)cc(-c4ccccc4Cl)oc23)[C@H](O)C1 [ALVOCIDIB] | 0.147 | 1 | 0.0442 | 0.0624 | 0.021 | 0.033 | 14 ng/mL | 5.6 ng/mL | 2.9 ng/mL | 56 ng/mL | 32 ng/mL | 52 ng/mL | 1.7 | 0.06 | 2.7 | 0.33 | 0.86 | 22 ×10⁻⁶ cm/s | 0.065 | – |
| CN(C)C(=O)C(CCN1CCC(O)(c2ccc(Cl)cc2)CC1)(c1ccccc1)c1ccccc1 [LOPERAMIDE] | 0.0462 | 0.00264 | 0.00591 | 0.00677 | 0.000644 | 0.0022 | 74 ng/mL | 130 ng/mL | 1.3 ng/mL | 390 ng/mL | 590 ng/mL | 170 ng/mL | 0.79 | 0.002 | 0.1 | 0.11 | 0.11 | 2.7 ×10⁻⁶ cm/s | 0.059 | – |
| C[C@H](CN1CCOCC1)n1/c(=N\C(N)=O)[nH]c2cc(/C=C3\c4ccccc4COc4cc(F)ccc43)ccc21 [LY2623091] | 0.00041 | 0.000192 | 8.38e-05 | 0.000104 | 0.000706 | 5.36e-05 | 240 ng/mL | 410 ng/mL | 31 ng/mL | 620 ng/mL | 730 ng/mL | 240 ng/mL | 0.68 | 0.028 | 0.87 | 5.6 | 0.14 | 0.1 ×10⁻⁶ cm/s | – | – |

Second part, led by results:

| fraction unbound at 6 h, 2 µM [1] | fraction unbound at 6 h, 2 µM [2] | fraction unbound at 6 h, 2 µM [3] | fraction unbound at 6 h, 2 µM [4] | fraction unbound at 6 h, 2 µM [5] | fraction unbound at 6 h, 2 µM [6] | Cp [7] | Ct [8] | Ct [9] | Ct [10] | Ct [11] | Ct [12] | Kp uu ([13]; heart/plasma) | Kp uu ([14]; brain/plasma) | Kp uu ([15]; adipose/plasma) | Kp uu ([16]; liver/plasma) | Kp uu ([17]; skeletal muscle/plasma) | Papp [18] | Kp uu [19] | Structure (SMILES) | also measured |
| --- | --- | --- | --- | --- | --- | --- | --- | --- | --- | --- | --- | --- | --- | --- | --- | --- | --- | --- | --- | --- |
| 0.00392 | 0.0593 | 0.00714 | 0.00722 | 0.00845 | 0.00926 | 410 ng/mL | 18 ng/mL | 5.8 ng/mL | 200 ng/mL | 2400 ng/mL | 58 ng/mL | 0.91 | 0.026 | 0.69 | 13 | 0.33 | 8.5 ×10⁻⁶ cm/s | – | CCC[C@H](Oc1cc(C)c(-n2cc(C(F)(F)F)cn2)c(C)c1)c1ccc(C(=O)NCCC(=O)O)cc1 [PF-06291874] | – |
| – | – | – | – | – | – | 40 ng/mL | 33 ng/mL | 11 ng/mL | 180 ng/mL | 640 ng/mL | 100 ng/mL | – | – | – | – | – | 26 ×10⁻⁶ cm/s | 0.059 | COc1cc2nc(N3CCN(C(=O)c4ccco4)CC3)nc(N)c2cc1OC [PRAZOSIN] | Kp uu ([13]; other tissue): 2.4; Kp uu ([14]; brain): 0.11; Kp uu ([15]; other tissue): 1.2; Kp uu ([16]; other tissue): 2.8; Kp uu ([17]; other tissue): 0.68 |
| – | – | – | – | – | – | – | – | – | – | – | – | – | – | – | – | – | 9.9 ×10⁻⁶ cm/s | 0.019 | CC(C)c1nc(CN(C)C(=O)N[C@H](C(=O)N[C@@H](Cc2ccccc2)C[C@H](O)[C@H](Cc2ccccc2)NC(=O)OCc2cncs2)C(C)C)cs1 [RITONAVIR] | Cp ([7]; Wistar Han): 27 ng/mL; Ct ([8]; Wistar Han): 31 ng/mL; Ct ([9]; Wistar Han): 0.38 ng/mL; Ct ([10]; Wistar Han): 170 ng/mL; Ct ([11]; Wistar Han): 370 ng/mL; Ct ([12]; Wistar Han): 42 ng/mL; Kp uu ([13]; other tissue): 9.6; Kp uu ([14]; brain): 0.0018; Kp uu ([15]; other tissue): 9.6; Kp uu ([16]; other tissue): 1.2; Kp uu ([17]; other tissue): 0.56 |
| 0.686 | 0.541 | 0.239 | 0.237 | 0.237 | 0.676 | 160 ng/mL | 30 ng/mL | 87 ng/mL | 190 ng/mL | 290 ng/mL | 160 ng/mL | 0.39 | 0.19 | 0.14 | 0.63 | 0.99 | 0.27 ×10⁻⁶ cm/s | – | CCCn1cnc(C[C@H](CCCN)C(=O)O)c1 [UK-396,082] | – |
